Earlier results as cited in US20100267960A1, “PROCESS FOR PREPARING PRAMIPEXOLE DIHYDROCHLORIDE TABLETS” (Boehringer Ingelheim Pharma GmbH & Co. KG, priority 2006, published 2010).
Where a name gives a salt, the structure may show the parent alone.

How the values were obtained:
[1] = not given; remark: listed apart in the source

SMILES	hygroscopicity (solid)	solubility in buffer media ([1]; buffer media, between pH 2 and pH 7.4)	Water solubility ([1]; water)	light sensitivity in solution (in solution)	stability in the solid state (solid state)
CCCN[C@H]1CCc2nc(N)sc2C1 [Pramipexole dihydrochloride monohydrate, pramipexole dihydrochloride monohydrate]	not hygroscopic	above 10 mg/mL	more than 20 mg/mL	–	–
CCCN[C@H]1CCc2nc(N)sc2C1 [Pramipexole, (S)-2-amino-4,5,6,7-tetrahydro-6-(propylamino)benzothiazole]	–	–	–	light sensitive	very stable
